melting point: 212 to 215 °C
Compound: COc1cccc(Nc2nc(Nc3cc(C)n[nH]3)c3ccccc3n2)c1 [IIc-56, [2-(3-Methoxyphenylamino)-quinazolin-4-yl]-(5-methyl-2H-pyrazol-3-yl)-amine]

Reference: patent US6653301B2, “Pyrazole compounds useful as protein kinase inhibitors” (Vertex Pharmaceuticals Incorporated, priority 2000, dated 2003)
